Assay results published in US10053457B2, “Hydroxyalkyl-piperazine derivatives as CXCR3 receptor modulators” (IDORSIA PHARMACEUTICALS LTD, priority 2015, dated 2018).
Each block holds one compound with its values, some of them ahead of it.

Tests used:
Format in all cases: cell-based
[1] = target: CXCR3 (Homo sapiens (Human), UniProt P49682); experiment: Receptor internalization assay in human whole blood (CXCR3 surface expression on CD4 positive cells, CXCL10); settings: final CXCL10 9 nM, 30 min at 37° C., mean values
CXCR3, sequence (P49682 whole entry): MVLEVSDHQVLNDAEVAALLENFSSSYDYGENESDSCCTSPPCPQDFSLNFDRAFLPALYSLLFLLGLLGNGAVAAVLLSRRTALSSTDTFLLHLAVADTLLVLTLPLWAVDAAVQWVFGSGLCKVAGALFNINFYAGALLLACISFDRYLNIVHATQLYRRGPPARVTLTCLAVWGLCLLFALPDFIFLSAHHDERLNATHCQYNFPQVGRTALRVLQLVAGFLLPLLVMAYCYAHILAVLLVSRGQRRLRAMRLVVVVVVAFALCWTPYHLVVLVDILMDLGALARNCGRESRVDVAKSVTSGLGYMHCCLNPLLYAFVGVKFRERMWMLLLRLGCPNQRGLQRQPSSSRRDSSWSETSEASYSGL
Description: Diluted compounds are then mixed with an equal volume of CXCL10 (Peprotech) diluted in PBS. Anticoagulated venous human whole blood is added to the mixture, which is then incubated in a CO2 incubator at 37° C. to allow for ligand mediated receptor internalization (final CXCL10 concentration is 9 nM). After 30 min, the blood is mixed with fluorescently labeled CXCR3 and CD4 specific antibodies (Becton Dickinson) and incubated on ice for 10 minutes. Samples are then mixed with BD FACS Lysing Solution (Becton Dickinson) in order to eliminate red blood cells. After washing the cells with PBS containing 0.5% BSA, the samples are then analyzed in a flow cytometer (FACS Canto II, Becton Dickinson). For data analysis using FACSDiva software (Becton Dickinson), the mean fluorescence corresponding to CXCR3 cell surface expression was determined on CD4 positive cells. The program GraphPad Prism or similar software is used to fit the data to a single site dose response curve and to calculate IC50 values.
(§1) In the case where IC50 values have been determined several times for the same compound, mean values are given.

[2] = target: human CXCR3A (Homo sapiens (Human), UniProt P49682); experiment: FLIPR assay (CXCL10-induced calcium signal); settings: CHO-K1 cells expressing human CXCR3A coupled to Galpha(16); CXCL10 agonist 20 nM; mean values
human CXCR3A, sequence (P49682 whole entry): as above
From the text: as §1

[3] = target: hERG K channel (Homo sapiens (Human), UniProt Q12809); experiment: hERG Q-Patch assay; settings: CHO cells expressing hERG, K+ tail current 3 min after application, mean of two or three experiments
hERG K channel, sequence (Q12809 whole entry): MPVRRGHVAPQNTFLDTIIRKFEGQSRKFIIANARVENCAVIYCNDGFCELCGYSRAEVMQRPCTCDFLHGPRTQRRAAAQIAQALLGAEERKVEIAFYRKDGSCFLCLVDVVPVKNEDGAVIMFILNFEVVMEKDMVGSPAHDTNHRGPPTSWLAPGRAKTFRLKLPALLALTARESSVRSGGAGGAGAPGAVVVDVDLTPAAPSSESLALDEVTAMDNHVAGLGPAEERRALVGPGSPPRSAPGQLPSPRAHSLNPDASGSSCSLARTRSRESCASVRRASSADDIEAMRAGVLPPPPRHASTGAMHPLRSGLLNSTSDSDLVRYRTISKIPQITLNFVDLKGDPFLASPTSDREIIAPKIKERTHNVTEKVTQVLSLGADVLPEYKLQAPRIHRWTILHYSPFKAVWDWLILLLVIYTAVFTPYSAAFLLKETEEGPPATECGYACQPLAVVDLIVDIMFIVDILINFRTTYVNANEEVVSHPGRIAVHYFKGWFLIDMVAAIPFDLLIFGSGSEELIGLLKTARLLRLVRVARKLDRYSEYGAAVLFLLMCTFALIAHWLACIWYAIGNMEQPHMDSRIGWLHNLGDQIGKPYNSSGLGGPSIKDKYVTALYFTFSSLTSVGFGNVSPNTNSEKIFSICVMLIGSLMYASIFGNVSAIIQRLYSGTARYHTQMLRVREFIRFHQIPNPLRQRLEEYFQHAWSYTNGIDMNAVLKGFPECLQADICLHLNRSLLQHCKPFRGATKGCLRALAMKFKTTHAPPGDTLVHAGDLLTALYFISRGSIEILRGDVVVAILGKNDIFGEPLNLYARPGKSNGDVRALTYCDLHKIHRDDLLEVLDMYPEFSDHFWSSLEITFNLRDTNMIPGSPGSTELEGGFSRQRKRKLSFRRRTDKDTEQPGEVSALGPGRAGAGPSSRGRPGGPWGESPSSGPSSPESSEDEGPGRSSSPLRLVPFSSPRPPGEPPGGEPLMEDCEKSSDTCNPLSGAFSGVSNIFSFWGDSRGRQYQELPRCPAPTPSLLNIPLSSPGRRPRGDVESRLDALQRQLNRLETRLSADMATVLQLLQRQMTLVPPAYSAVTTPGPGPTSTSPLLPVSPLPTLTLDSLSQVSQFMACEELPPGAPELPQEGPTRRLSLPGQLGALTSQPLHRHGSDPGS
Description: Compounds are evaluated for block of the hERG K channel using CHO cells stably expressing the hERG gene (accession number U04270, bSys, Witterswil, Switzerland) and the QPatch robotic platform (Sophion, Ballerup, Denmark) in single-cell mode at room temperature. Cells are grown in culture flasks at 37° C. in 5% CO2, in culture medium (Ham's F-12 Nutrient Mixture, Invitrogen 21765-029) supplemented with 9% (v/v) fetal calf serum, 0.9% Penicillin/Streptomycin (10,000 U/mL, Invitrogen 15140148), 100 μg/mL Hygromycin B (Invitrogen 10687010). When the cells are ˜80% confluent (every 2-3 days), they are either split for further culture or used for electrophysiology. For further culture, cells are detached with 0.25% Trypsin EDTA solution (Invitrogen 25200-056) and a fraction of the cells (10-30%) is reseeded in culture medium. For electrophysiology, on the experimental day, cells are detached with 0.25% Trypsin EDTA solution and all cells are suspended in suspension medium (293 SFM II, Invitrogen 11686-029) supplemented with 20 mM HEPES and 0.04 mg/mL Trypsin inhibitor. Cells are kept in suspension medium at 32-35° C. in the QPatch robot until use, at which time aliquots are transferred to the extracellular solution (in mM: NaCl 150; KCl 4; CaCl2 1.2; MgCl2 1; HEPES 10; pH 7.4 with NaOH) containing 0.3% v/v DMSO and applied to the test plates. K^+ currents are measured with the patch-voltage-clamp technique in the whole-cell configuration with the internal solution (in mM: KCl, 140; NaCl, 10; MgCl2, 1; HEPES, 10: EGTA, 5; pH=7.2 with KOH). Currents are low-pass filtered using the internal Bessel filter of the QPatch robot with a cut-off frequency of 2 kHz and are digitized at 10 kHz. K^+ tail currents are produced from a holding voltage of −80 mV by a 500-ms depolarization to +20 mV followed by a 500-ms repolarization to −40 mV; tail current amplitudes are measured at the end of the repolarization to −40 mV. The pulse pattern is repeated every 10 sec during the experiment, baseline K^+ current is measured after 3 min in extracellular solution, test-solution containing compound is then applied, and K^+ current in presence of compound is measured 3 minutes after application to the cells. The respective test-solution is prepared by (1) dissolving the test-compound in pure DMSO, (2) diluting this DMSO solution in extracellular solution, and (3) adding further DMSO, such that the final test-solution has a concentration of either 300 nM or 3000 nM of the test-compound and contains 0.3% v/v DMSO. Compound effects are quantified as % block by dividing the current in presence of compound by the baseline current; two or three experiments are performed for each compound and the final value represents the mean of the results of each experiment.

IC50 [1]: 258 nM | IC50 [2]: 8.6 nM
SMILES: O=C(Cn1cnc(C(F)F)n1)N1CCN(c2sc(C(F)(F)F)nc2-c2cnc(C(F)(F)F)nc2)C[C@@H]1CO [Example 38, 2-(3-Difluoromethyl-[1,2,4]triazol-1-yl)-1-{(R)-2-hydroxymethyl-4-[2-trifluoromethyl-4-(2-trifluoromethyl-pyrimidin-5-yl)-thiazol-5-yl]-piperazin-1-yl}-ethanone]

IC50 [1]: 542 nM | IC50 [2]: 3.9 nM
SMILES: Cc1ncn(CC(=O)N2CCN(c3sc(C(F)(F)F)nc3-c3cnc(C(F)(F)F)nc3)C[C@@H]2CO)n1 [Example 16, 1-{(R)-2-Hydroxymethyl-4-[2-trifluoromethyl-4-(2-trifluoromethyl-pyrimidin-5-yl)-thiazol-5-yl]-piperazin-1-yl}-2-(3-methyl-[1,2,4]triazol-1-yl)-ethanone]
% block ([3]; concentration 300 nM): 1% | % block ([3]; concentration 3000 nM): 1%

IC50 [1]: 105 nM | IC50 [2]: 1.6 nM
SMILES: Cc1ccn(CC(=O)N2CCN(c3sc(C(F)(F)F)nc3-c3cnc(C(F)(F)F)nc3)C[C@@H]2CO)n1 [Example 22, 1-{(R)-2-Hydroxymethyl-4-[2-trifluoromethyl-4-(2-trifluoromethyl-pyrimidin-5-yl)-thiazol-5-yl]-piperazin-1-yl}-2-(3-methyl-pyrazol-1-yl)-ethanone]
% block ([3]; concentration 300 nM): 4% | % block ([3]; concentration 3000 nM): 15%

IC50 [1]: 76 nM | IC50 [2]: 0.38 nM
SMILES: O=C(Cn1ccc(C2CC2)n1)N1CCN(c2sc(C(F)(F)F)nc2-c2cnc(C(F)(F)F)nc2)C[C@H]1CO [Example 44, 2-(3-Cyclopropyl-pyrazol-1-yl)-1-{(S)-2-hydroxymethyl-4-[2-trifluoromethyl-4-(2-trifluoromethyl-pyrimidin-5-yl)-thiazol-5-yl]-piperazin-1-yl}-ethanone]
% block ([3]; concentration 300 nM): 5% | % block ([3]; concentration 3000 nM): 34%

IC50 [1]: 652 nM | IC50 [2]: 27 nM
SMILES: CCc1ncnn1CC(=O)N1CCN(c2sc(C(F)(F)F)nc2-c2cnc(C(F)(F)F)nc2)C[C@H]1CCO [Example 33, 2-(5-Ethyl-[1,2,4]triazol-1-yl)-1-{(R)-2-(2-hydroxy-ethyl)-4-[2-trifluoromethyl-4-(2-trifluoromethyl-pyrimidin-5-yl)-thiazol-5-yl]-piperazin-1-yl}-ethanone]
% block ([3]; concentration 300 nM): −5% | % block ([3]; concentration 3000 nM): 6%

IC50 [1]: 355 nM | IC50 [2]: 7.6 nM
SMILES: CCc1nc(C)n(CC(=O)N2CCN(c3sc(C(F)(F)F)nc3-c3cnc(C(F)(F)F)nc3)C[C@@H]2CO)n1 [Example 24, 2-(3-ethyl-5-methyl-[1,2,4]triazol-1-yl)-1-{(R)-2-hydroxymethyl-4-[2-trifluoromethyl-4-(2-trifluoromethyl-pyrimidin-5-yl)-thiazol-5-yl]-piperazin-1-yl}-ethanone]

IC50 [1]: 74.2 nM | IC50 [2]: 3.5 nM
SMILES: O=C(Cn1cnc2cccnc21)N1CCN(c2sc(C(F)(F)F)nc2-c2cnc(C(F)(F)F)nc2)C[C@@H]1CO [Example 26, 1-{(R)-2-Hydroxymethyl-4-[2-trifluoromethyl-4-(2-trifluoromethyl-pyrimidin-5-yl)-thiazol-5-yl]-piperazin-1-yl}-2-imidazo[4,5-b]pyridin-3-yl-ethanone]

IC50 [1]: 737 nM | IC50 [2]: 4.3 nM
SMILES: CC(O)c1ncn(CC(=O)N2CCN(c3sc(C(F)(F)F)nc3-c3cnc(C(F)(F)F)nc3)C[C@@H]2CO)n1 (stereo partly drawn) [Example 21, 2-[3-(1-Hydroxy-ethyl)-[1,2,4]triazol-1-yl]-1-{(R)-2-hydroxymethyl-4-[2-trifluoromethyl-4-(2-trifluoromethyl-pyrimidin-5-yl)-thiazol-5-yl]-piperazin-1-yl}-ethanone]

Further lines, the compound ahead of its results:

SMILES: Cc1ccn(CC(=O)N2CCN(c3sc(C(F)(F)F)nc3-c3cnc(C(F)(F)F)nc3)C[C@H]2CCO)n1 [Example 39, 1-{(R)-2-(2-Hydroxy-ethyl)-4-[2-trifluoromethyl-4-(2-trifluoromethyl-pyrimidin-5-yl)-thiazol-5-yl]-piperazin-1-yl}-2-(3-methyl-pyrazol-1-yl)-ethanone]
% block ([3]; concentration 300 nM): 1% | % block ([3]; concentration 3000 nM): 32% | IC50 [1]: 46.3 nM | IC50 [2]: 1 nM

SMILES: O=C(Cn1cnc(C2CC2)n1)N1CCN(c2sc(C(F)(F)F)nc2-c2cnc(C(F)(F)F)nc2)C[C@H]1CO [Example 3, 2-(3-Cyclopropyl-[1,2,4]triazol-1-yl)-1-{(S)-2-hydroxymethyl-4-[2-trifluoromethyl-4-(2-trifluoromethyl-pyrimidin-5-yl)-thiazol-5-yl]-piperazin-1-yl}-ethanone]
% block ([3]; concentration 300 nM): 0% | % block ([3]; concentration 3000 nM): 12% | IC50 [1]: 191 nM | IC50 [2]: 3 nM

SMILES: Cc1ncn(CC(=O)N2CCN(c3sc(C(F)(F)F)nc3-c3cnc(C(F)(F)F)nc3)C[C@H]2CCO)n1 [Example 35, 1-{(R)-2-(2-Hydroxy-ethyl)-4-[2-trifluoromethyl-4-(2-trifluoromethyl-pyrimidin-5-yl)-thiazol-5-yl]-piperazin-1-yl}-2-(3-methyl-[1,2,4]triazol-1-yl)-ethanone]
% block ([3]; concentration 300 nM): 11% | % block ([3]; concentration 3000 nM): 25% | IC50 [1]: 102 nM | IC50 [2]: 2.9 nM

SMILES: O=C(Cn1ccc2cc(F)ccc21)N1CCN(c2sc(C(F)(F)F)nc2-c2cnc(C(F)(F)F)nc2)C[C@@H]1CO [Example 14, 2-(5-Fluoro-indol-1-yl)-1-{(R)-2-hydroxymethyl-4-[2-trifluoromethyl-4-(2-trifluoromethyl-pyrimidin-5-yl)-thiazol-5-yl]-piperazin-1-yl}-ethanone]
% block ([3]; concentration 300 nM): 14% | % block ([3]; concentration 3000 nM): 62% | IC50 [1]: 199 nM | IC50 [2]: 0.7 nM

SMILES: O=C(Cn1cnc(C(F)(F)F)n1)N1CCN(c2sc(C(F)(F)F)nc2-c2cnc(C(F)(F)F)nc2)C[C@H]1CO [Example 5, 1-{(S)-2-Hydroxymethyl-4-[2-trifluoromethyl-4-(2-trifluoromethyl-pyrimidin-5-yl)-thiazol-5-yl]-piperazin-1-yl}-2-(3-trifluoromethyl-[1,2,4]triazol-1-yl)-ethanone]
% block ([3]; concentration 300 nM): −2% | % block ([3]; concentration 3000 nM): 7% | IC50 [1]: 328 nM | IC50 [2]: 4 nM

SMILES: Cc1nc(-c2ncn(CC(=O)N3CCN(c4sc(C(F)(F)F)nc4-c4cnc(C(F)(F)F)nc4)C[C@@H]3CO)n2)no1 [Example 18, 1-{(R)-2-Hydroxymethyl-4-[2-trifluoromethyl-4-(2-trifluoromethyl-pyrimidin-5-yl)-thiazol-5-yl]-piperazin-1-yl}-2-[3-(5-methyl-[1,2,4]oxadiazol-3-yl)-[1,2,4]triazol-1-yl]-ethanone]
% block ([3]; concentration 300 nM): 6% | % block ([3]; concentration 3000 nM): 13% | IC50 [1]: 6500 nM | IC50 [2]: 510 nM

SMILES: O=C(Cn1cnc(-c2ccccn2)n1)N1CCN(c2sc(C(F)(F)F)nc2-c2cnc(C(F)(F)F)nc2)C[C@@H]1CO [Example 23, 1-{(R)-2-Hydroxymethyl-4-[2-trifluoromethyl-4-(2-trifluoromethyl-pyrimidin-5-yl)-thiazol-5-yl]-piperazin-1-yl}-2-(3-pyridin-2-yl-[1,2,4]triazol-1-yl)-ethanone]
IC50 [1]: 2730 nM | IC50 [2]: 35 nM

SMILES: CCc1nc(C)nn1CC(=O)N1CCN(c2sc(C(F)(F)F)nc2-c2cnc(C(F)(F)F)nc2)C[C@@H]1CO [Example 25, 2-(5-ethyl-3-methyl-[1,2,4]triazol-1-yl)-1-{(R)-2-hydroxymethyl-4-[2-trifluoromethyl-4-(2-trifluoromethyl-pyrimidin-5-yl)-thiazol-5-yl]-piperazin-1-yl}-ethanone]
IC50 [1]: 664 nM | IC50 [2]: 3.6 nM
